From PubChem BioAssay (NCI)
Where “and” joins values, the source holds several entries; their conditions need not be identical. Equal entries are not always repeated.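 96-well plates; 48 h exposure; 5 concentrations. Endpoints by linear interpolation between flanking doses. Not reached: highest tested concentration assigned. Abbreviation: GI50, concentration required for 50% inhibition of growth. TGI marks complete inhibition of growth.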

What was measured:
Assay in all cases: NCI tumour cell line growth inhibition, 48 h
DMS 273 small cell lung = tested on: DMS 273 small cell lung
LXFL 529 NSCLC = tested on: LXFL 529 NSCLC
RXF-631 renal = tested on: RXF-631 renal
HOP-18 NSCLC = tested on: HOP-18 NSCLC
M19-MEL melanoma = tested on: M19-MEL melanoma
KM20L2 colon = tested on: KM20L2 colon
MDA-N = tested on: MDA-N
DMS 114 small cell lung = tested on: DMS 114 small cell lung
XF 498 CNS = tested on: XF 498 CNS
SN12K1 renal = tested on: SN12K1 renal
P388 leukemia = tested on: P388 leukemia
P388/ADR leukemia = tested on: P388/ADR leukemia

Row | SMILES | TGI (DMS 273 small cell lung) | TGI (LXFL 529 NSCLC) [µM] | TGI (RXF-631 renal) [µM] | TGI (HOP-18 NSCLC) | TGI (M19-MEL melanoma) | TGI (KM20L2 colon) | TGI (MDA-N) [µM] | TGI (DMS 114 small cell lung) | TGI (XF 498 CNS) | also measured
1 | O=C(O)COc1ccc(C(=O)/C(SS/C(C(=O)c2ccc(OCC(=O)O)c(Cl)c2Cl)=C2\C=C(c3ccc(Cl)cc3)SS2)=C2/C=C(c3ccc(Cl)cc3)SS2)c(Cl)c1Cl | 32.7 µM | 14.4 | > 100 | 23 µM | 20.6 µM | 54.5 µM |  |  |  | 
2 | C(=N\Nc1ccccc1)/c1nc2ccccc2nc1/C=N/Nc1ccccc1 |  | 23 | 27.6 |  | 41.1 µM | 26.5 µM |  |  |  | 
3 | NC(N)=NC(N)=Nc1cnccn1 |  |  |  |  |  |  | > 100 |  |  | 
4 | O=C(NC(=O)c1ccccc1[N+](=O)[O-])Nc1ccc(Oc2ncc(Cl)cn2)c([N+](=O)[O-])c1 | > 100 µM | > 100 | > 100 | > 100 µM | > 100 µM | 0.383 µM |  | 0.359 µM |  | 
5 | COc1cc(O)c2c(c1)O[C@@H]1OCC[C@H]21 | > 100 µM | > 100 |  | > 100 µM |  | > 100 µM |  | > 100 µM | > 100 µM | 
6 | COc1cc(-c2oc3c(OC)cc(OC)c(O)c3c(=O)c2OC)cc(OC)c1OC |  |  |  |  |  |  | > 100 |  |  | 
7 | COc1ccc(Cc2c(=O)[nH]nc3ccccc23)cc1 | > 100 µM |  | > 100 | > 100 µM | > 100 µM | > 100 µM |  | > 100 µM | > 100 µM | 
8 | CC[C@@]1(O)C(=O)OCc2c1cc1n(c2=O)Cc2cc3cccc([N+](=O)[O-])c3nc2-1 | 1.67 µM | > 100 |  | > 100 µM |  | 41.7 µM |  | 38.3 µM | 34.6 µM | GI50 (DMS 273 small cell lung): 0.175 µM; GI50 (LXFL 529 NSCLC): 14.2 µM; GI50 (XF 498 CNS): 3.12 µM; GI50 (DMS 114 small cell lung): 0.684 µM; GI50 (HOP-18 NSCLC): 1.85 µM; GI50 (KM20L2 colon): 3.24 µM
9 | c1ccc2cc(NCNc3ccc4ccccc4c3)ccc2c1 |  |  |  |  |  |  | 18.6 |  |  | 
10 | Cc1ccc(NC(=O)c2cc3ccccc3c(N=Nc3cc(S(=O)(=O)O)ccc3O)c2O)c(C)c1 |  |  |  |  |  |  | > 100 |  |  | 
11 | CC1(C)CC[C@]2(C(=O)O)CC[C@]3(C)C(=CC[C@@H]4[C@@]5(C)C[C@H](O)[C@H](O)[C@@](C)(C(=O)O)[C@@H]5CC[C@]43C)[C@@H]2C1 |  |  |  |  |  |  | > 100 |  |  | 
12 | O=C(O)C(C(=O)O)P(=S)(S)c1ccccc1 (stereo unspecified) | > 100 µM | > 100 | > 100 |  | > 100 µM | > 100 µM | > 100 | > 100 µM | > 100 µM | 
13 | O=c1c2ccccc2nc(/C=C(\O)c2ccncc2)n1-c1ccc(Cl)cc1 |  | > 100 |  |  | > 100 µM | > 100 µM |  | > 100 µM | 66.4 µM | 
14 | O=C(NCc1cccnc1)C1COc2cc(-c3cc(=O)c4ccccc4o3)ccc2O1 (stereo unspecified) |  | > 100 | > 100 | > 100 µM | > 100 µM | > 100 µM |  | > 79.5 µM | 72.1 µM | 
15 | Nc1nc(Cl)cc(NCC(O)CO)n1 (stereo unspecified) | > 100 µM | > 100 |  | > 100 µM | > 100 µM | > 100 µM |  | > 100 µM | > 100 µM | 
16 | O=C1NC2C(=CC(O)C(O)C2O)c2cc3c(cc21)OCO3 (stereo unspecified) | 1.99 µM and 2.07 µM | 3.66 | 3.13 | 4.33 µM and 13.1 µM | 1.72 µM and 1.53 µM | 5.54 µM and 5.32 µM | 1.22 | 3.84 µM and 2.17 µM | 0.93 µM and 1.81 µM and 0.644 µM | TGI (SN12K1 renal): 1.8 µM; GI50 (DMS 273 small cell lung): 0.604 µM and 0.301 µM; GI50 (LXFL 529 NSCLC): 0.313 µM; GI50 (RXF-631 renal): 0.23 µM; GI50 (XF 498 CNS): 0.207 µM and 0.416 µM; TGI (P388 leukemia): 0.461 µM; TGI (P388/ADR leukemia): 0.714 µM; GI50 (DMS 114 small cell lung): 0.335 µM and 0.321 µM; GI50 (HOP-18 NSCLC): 0.545 µM and 0.392 µM; GI50 (M19-MEL melanoma): 0.353 µM and 0.282 µM; GI50 (KM20L2 colon): 0.34 µM and 0.261 µM
17 | Cc1nn2c(nc1=O)sc1ccc3ccccc3c12 | > 100 µM | > 100 |  | > 100 µM | > 100 µM | > 100 µM |  | > 100 µM | > 100 µM | 
18 | O=[N+]([O-])c1cc([N+](=O)[O-])c(/C=C/c2ccc(Cl)c(Cl)c2)cc1/C=C/c1ccc(Cl)c(Cl)c1 | 96.4 µM | 56.1 |  |  | 46.1 µM | 81 µM |  | 68.1 µM |  | 
